“Also recorded” adds a separate entry of the source. Blank lines part the entries; values can stand above or below the compound they belong to.
Tests used:
ANKTM1 = molecular target: T1, ANKTM1 (Mus musculus, UniProt Q8BLA8); test: Intracellular calcium imaging (Fura-2) of ANKTM1-expressing CHO cells; assay type: cell-based, murine; settings: for activation of ANKTM1-expressing cells by compound: rise in intracellular calcium, 340/380 ratio, FIG. 4B
T1 construct: pcDNA5FRT/TO containing full-length murine ANKTM1; expressed in transfected cells; host or cells: tetracycline-inducible CHO-K1/FRT cells (Flp-In)
Experimental: Nevertheless, since ANKTM1 bears similarities to TRP-like channels expressed in sensory neurons, tests were conducted to determine activation of ANKTM1 by various sensory stimuli. To this end, a series of tests were conducted using full-length murine ANKTM1 stably transfected in Chinese Hamster Ovary (CHO) cells containing FRT sites (CHO-K1/FRT) under control of a tetracycline (Tet)-inducible promoter via Flp recombinase mediated recombination. To circumvent this problem, cell lines were generated in which ANKTM1 expression could be controlled. Tetracycline-inducible CHO-K1/FRT cells lines were generated by transfecting the CHO Flp-In host cell line with pcDNA6/TR according to manufacturer's instructions (Invitrogen, San Diego, Calif.) and selected in 5 μg/mL Blasticidin. Clones stably expressing the tetracycline repressor identified by blasticidin resistance were transiently transfected with a control plasmid containing the CAT gene and selected based on high levels of CAT expression after treatment with tetracycline. The gene expression vector; pcDNA5FRT/TO containing full-length murine ANKTM1 and the Flp recombinase expression plasmid pOG44 were co-transfected into the tetracycline-inducible CHO-K1/FRT cell line and selected via Hygromycin resistance (200 μg/ml). Induction of ANKTM1 was accomplished by treating CHO cells with 1-2 μg/mL tetracycline (Tet) 5-24 hours before experiments. Calcium imaging experiments were performed essentially as described (Peier et al., 2002a, supra). Briefly, cells were plated on glass coverslips 24-48 hours prior to imaging experiments. Cells were washed in HEPES buffeted saline solution (2 mM Ca^2+), loaded with Fura-2 acetoxymethyl ester ([…]), 1.5 mM pluronic acid (Molecular Probes, Eugene, Oreg.) and incubated for 1 hour at room temperature in the dark. Coverslips were placed in laminar flow chamber (Warner Instrument Corp., Hamden, Conn.) and perfused with HEPES buffered saline (2 mM Ca^2+) flowing through small-diameter tubing at the inlet of the chamber. Perfusion rate was approximately 2 ml/min and was stopped and started via a solenoid switch (Warner Instrument Corp., Hamden, Conn. Perfusate temperature was controlled by a Peltier device and monitored via miniature thermocouple at the inlet of the chamber. Heated (up to 52° C.), chilled (down to 9° C., the limit of our system), and room temperature buffer was delivered through the same application tubing at the inlet of the chamber. Alternatively, in experiments where the compounds menthol (Sigma, St. Louis, Mo.]), capsaicin (Fluka, Buchs, Switzerland) and Icilin (Tocris Woodson,) were applied, cells were plated on 24-well tissue culture plates and loaded with Fura-2. Compounds were delivered with a 3 cc syringe during a period of ten seconds. Images of Fura-2 loaded cells with the excitation wavelength alternating between 340 nm and 380 nm were captured with a cooled […] camera. The ratio of fluorescence intensity of the two wavelengths of groups of 30-50 cells in each experiment was analyzed using MetaFluor (Universal Imaging Corp). Experiments were performed in triplicate. Unless otherwise indicated, graphs represent averaged responses of 20-40 cells from representative experiments. For direct comparison of results from different experiments, values were normalized to baseline of the ratio 340/380. For ANKTM1 and TRPM8 threshold experiments, the threshold temperature of activation of 60-100 cells each from three replicate experiments was analyzed. Threshold of activation was defined as 20% above baseline. Hanks Balanced Salt Solution (HBSS) and HEPES buffers were obtained from GibcoBRL.

TRPM8 [1] = molecular target: T2, TRPM8 (Mus musculus, UniProt Q8R4D5); test: Intracellular calcium imaging (Fura-2) of TRPM8-expressing CHO cells; assay type: cell-based, murine
T2 construct: expressed in transfected cells; host or cells: CHO-K1/FRT cells
Experimental: CHO-K1/FRT cells were stably transfected with full-length murine ANKTM1 in the pcDNA5/FRT vector using Lipofectamine (Invitrogen) according to the manufacturer's protocol. Transfected cells were selected in growth medium containing Hygromycin (200 μg/mL). Northern blot analysis identified stable clones expressing ANKTM1 mRNA. The generation of stable murine TRPM8-expressing CHO-K1/FRT cells has been previously described (Peier et al, 2002). ANKTM1-expressing stable CHO-K1/FRT lines appeared unhealthy (membrane blebbing, cytoplasmic granulations) in culture, and after several passages, a loss of ANTKM1 expression was observed. Previous investigators have also claimed difficulty generating stable cell lines expressing human ANKTM1.
Calcium imaging experiments were performed essentially as described (Peier et al., 2002a, supra). Briefly, cells were plated on glass coverslips 24-48 hours prior to imaging experiments. […]
Images of Fura-2 loaded cells with the excitation wavelength alternating between 340 nm and 380 nm were captured with a cooled […] camera. The ratio of fluorescence intensity of the two wavelengths of groups of 30-50 cells in each experiment was analyzed using MetaFluor (Universal Imaging Corp). […] For ANKTM1 and TRPM8 threshold experiments, the threshold temperature of activation of 60-100 cells each from three replicate experiments was analyzed. […]

TRPV1 [2] = molecular target: T3, TRPV1 (Rattus norvegicus, UniProt O35433); settings: general statement; cited from earlier work
T3 construct: expressed in transfected cells; host or cells: CHO cells

TRPM8 [3] = molecular target: T2, TRPM8; settings: McKemy et al., 2002; cited from earlier work
TRPV1 [4] = molecular target: T3, TRPV1; test: Intracellular calcium imaging (Fura-2) of TRPV1-expressing CHO cells; assay type: cell-based; settings: rise in intracellular calcium, 340/380 ratio, FIG. 4B
Experimental: Calcium imaging experiments were performed essentially as described (Peier et al., 2002a, supra). Briefly, cells were plated on glass coverslips 24-48 hours prior to imaging experiments. Cells were washed in HEPES buffeted saline solution (2 mM Ca^2+), loaded with Fura-2 acetoxymethyl ester ([…]), 1.5 mM pluronic acid (Molecular Probes, Eugene, Oreg.) and incubated for 1 hour at room temperature in the dark. Coverslips were placed in laminar flow chamber (Warner Instrument Corp., Hamden, Conn.) and perfused with HEPES buffered saline (2 mM Ca^2+) flowing through small-diameter tubing at the inlet of the chamber. Perfusion rate was approximately 2 ml/min and was stopped and started via a solenoid switch (Warner Instrument Corp., Hamden, Conn. Perfusate temperature was controlled by a Peltier device and monitored via miniature thermocouple at the inlet of the chamber. Heated (up to 52° C.), chilled (down to 9° C., the limit of our system), and room temperature buffer was delivered through the same application tubing at the inlet of the chamber. Alternatively, in experiments where the compounds menthol (Sigma, St. Louis, Mo.]), capsaicin (Fluka, Buchs, Switzerland) and Icilin (Tocris Woodson,) were applied, cells were plated on 24-well tissue culture plates and loaded with Fura-2. Compounds were delivered with a 3 cc syringe during a period of ten seconds. […]

T2 sequence (Q8R4D5 whole entry): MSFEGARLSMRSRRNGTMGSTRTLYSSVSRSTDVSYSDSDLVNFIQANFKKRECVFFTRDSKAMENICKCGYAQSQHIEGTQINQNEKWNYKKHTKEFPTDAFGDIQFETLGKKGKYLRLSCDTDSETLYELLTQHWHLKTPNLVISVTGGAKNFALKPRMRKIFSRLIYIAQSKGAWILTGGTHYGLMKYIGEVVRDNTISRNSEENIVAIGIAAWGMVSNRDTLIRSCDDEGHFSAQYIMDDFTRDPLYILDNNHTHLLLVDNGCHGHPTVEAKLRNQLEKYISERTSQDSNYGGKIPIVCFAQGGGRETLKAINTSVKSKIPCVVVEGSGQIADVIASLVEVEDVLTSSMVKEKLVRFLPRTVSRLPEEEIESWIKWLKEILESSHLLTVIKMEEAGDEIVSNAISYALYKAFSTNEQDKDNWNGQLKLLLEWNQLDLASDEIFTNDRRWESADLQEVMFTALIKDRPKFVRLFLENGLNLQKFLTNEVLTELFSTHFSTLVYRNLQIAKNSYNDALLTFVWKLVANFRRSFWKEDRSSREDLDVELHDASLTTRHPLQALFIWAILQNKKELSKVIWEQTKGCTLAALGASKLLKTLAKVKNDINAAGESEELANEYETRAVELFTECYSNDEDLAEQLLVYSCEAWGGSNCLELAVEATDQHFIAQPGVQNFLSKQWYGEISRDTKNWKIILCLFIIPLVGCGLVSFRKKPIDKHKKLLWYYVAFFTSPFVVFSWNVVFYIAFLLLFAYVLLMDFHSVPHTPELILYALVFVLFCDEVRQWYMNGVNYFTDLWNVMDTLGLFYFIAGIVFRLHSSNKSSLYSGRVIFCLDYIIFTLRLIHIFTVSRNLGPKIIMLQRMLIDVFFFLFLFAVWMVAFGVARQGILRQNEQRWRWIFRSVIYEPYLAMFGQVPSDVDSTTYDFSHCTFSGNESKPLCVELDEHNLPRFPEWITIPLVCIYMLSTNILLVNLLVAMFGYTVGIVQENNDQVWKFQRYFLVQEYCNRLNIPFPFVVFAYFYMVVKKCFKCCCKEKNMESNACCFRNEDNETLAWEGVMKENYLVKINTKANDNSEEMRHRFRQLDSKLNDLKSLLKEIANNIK
T1 sequence (Q8BLA8 whole entry): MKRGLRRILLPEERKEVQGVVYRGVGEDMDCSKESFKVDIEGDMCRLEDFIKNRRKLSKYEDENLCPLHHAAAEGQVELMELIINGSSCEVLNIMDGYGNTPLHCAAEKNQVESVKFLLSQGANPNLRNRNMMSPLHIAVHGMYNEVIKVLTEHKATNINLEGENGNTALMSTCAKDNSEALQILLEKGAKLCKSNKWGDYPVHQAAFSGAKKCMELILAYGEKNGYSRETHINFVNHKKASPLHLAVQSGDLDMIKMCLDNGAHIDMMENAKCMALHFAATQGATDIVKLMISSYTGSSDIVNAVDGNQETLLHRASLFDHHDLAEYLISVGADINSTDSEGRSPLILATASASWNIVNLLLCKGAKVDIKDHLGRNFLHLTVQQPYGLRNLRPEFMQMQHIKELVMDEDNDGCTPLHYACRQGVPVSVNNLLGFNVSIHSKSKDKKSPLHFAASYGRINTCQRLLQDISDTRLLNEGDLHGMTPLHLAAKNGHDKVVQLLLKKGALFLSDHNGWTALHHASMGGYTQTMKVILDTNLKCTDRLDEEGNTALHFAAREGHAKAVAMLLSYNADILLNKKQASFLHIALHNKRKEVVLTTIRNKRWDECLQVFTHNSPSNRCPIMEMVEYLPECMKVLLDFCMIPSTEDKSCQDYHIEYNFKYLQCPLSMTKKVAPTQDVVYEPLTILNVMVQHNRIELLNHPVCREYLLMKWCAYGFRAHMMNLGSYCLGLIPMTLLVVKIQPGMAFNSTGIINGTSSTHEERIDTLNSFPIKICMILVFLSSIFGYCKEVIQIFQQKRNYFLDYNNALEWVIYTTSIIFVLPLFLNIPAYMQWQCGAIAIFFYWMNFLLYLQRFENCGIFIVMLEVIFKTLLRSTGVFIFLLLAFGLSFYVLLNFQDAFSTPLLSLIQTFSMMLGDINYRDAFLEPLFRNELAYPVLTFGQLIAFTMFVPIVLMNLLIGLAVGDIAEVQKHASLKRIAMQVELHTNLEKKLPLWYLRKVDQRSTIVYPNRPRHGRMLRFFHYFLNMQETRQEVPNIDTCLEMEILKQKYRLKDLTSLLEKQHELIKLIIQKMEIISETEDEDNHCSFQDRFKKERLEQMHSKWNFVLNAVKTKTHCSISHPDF
T3 sequence (O35433 whole entry): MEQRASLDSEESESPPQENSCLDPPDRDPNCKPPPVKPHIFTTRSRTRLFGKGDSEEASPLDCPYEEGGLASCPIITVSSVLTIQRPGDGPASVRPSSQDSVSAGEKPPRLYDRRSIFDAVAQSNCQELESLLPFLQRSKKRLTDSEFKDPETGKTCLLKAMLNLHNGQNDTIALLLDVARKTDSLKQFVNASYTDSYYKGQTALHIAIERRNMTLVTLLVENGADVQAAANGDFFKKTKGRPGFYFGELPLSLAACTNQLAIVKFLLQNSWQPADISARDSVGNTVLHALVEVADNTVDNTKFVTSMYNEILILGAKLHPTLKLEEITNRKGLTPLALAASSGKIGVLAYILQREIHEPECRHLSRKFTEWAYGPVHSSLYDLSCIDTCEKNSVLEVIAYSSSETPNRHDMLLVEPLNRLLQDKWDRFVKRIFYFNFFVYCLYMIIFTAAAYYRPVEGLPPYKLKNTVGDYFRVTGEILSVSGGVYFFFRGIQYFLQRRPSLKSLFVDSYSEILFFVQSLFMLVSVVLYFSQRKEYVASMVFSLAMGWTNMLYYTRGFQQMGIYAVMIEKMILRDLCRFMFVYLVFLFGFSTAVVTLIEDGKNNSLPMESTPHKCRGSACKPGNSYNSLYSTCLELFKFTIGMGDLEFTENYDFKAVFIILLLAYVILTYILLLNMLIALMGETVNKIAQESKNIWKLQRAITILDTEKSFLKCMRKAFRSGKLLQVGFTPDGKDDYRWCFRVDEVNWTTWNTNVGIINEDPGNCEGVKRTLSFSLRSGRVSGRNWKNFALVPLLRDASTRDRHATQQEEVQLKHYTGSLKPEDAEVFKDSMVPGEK

- ANKTM1-containing cells with complete block of the cold response (ANKTM1; 1 μm ruthenium red, multiple experiments): 90%
Structure (SMILES): N.N.N.N.N.N.N.N.N.N.N.N.N.N.[Cl-].[Cl-].[Cl-].[Cl-].[Cl-].[Cl-].[O-2].[O-2].[Ru+3].[Ru+3].[Ru+4] [ruthenium red]
- block of cold responses by ANKTM1 (ANKTM1; 5 μM ruthenium red, pre-incubation or present during cooling, ANKTM1-expressing CHO cells, not entirely recovered after ten minute washout): eliminates cold-evoked responses; also recorded: completely blocked

Structure (SMILES): CC1CCC(C(C)C)C(O)C1 (stereo not drawn) [Menthol, menthol]
- activation of ANKTM1-expressing cells by compound (ANKTM1): failed to activate

- activation of TRPM8-expressing cells by compound (TRPM8 [1]; rise in intracellular calcium, 340/380 ratio, FIG. 4B): did not activate
- activation of ANKTM1-expressing cells by compound (ANKTM1): did not activate
Structure (SMILES): COc1cc(CNC(=O)CCCC/C=C/C(C)C)ccc1O [capsaicin]
- activator of TRPV1 (TRPV1 [2]): potent activator

- delay of response (TRPM8 [1]; TRPM8 cells): 15 s
- activation of TRPV1-expressing cells by compound (TRPV1 [4]): did not activate
- delay of response (ANKTM1; ANKTM1 cells): 15 to 60 s
- concentration required for ANKTM1 activation compared to TRPM8 (ANKTM1; comparison with TRPM8-expressing cells): Higher concentrations
- activation of ANKTM1-expressing cells by compound (ANKTM1): activated
Structure (SMILES): O=C1NC(c2cccc([N+](=O)[O-])c2)=CCN1c1ccccc1O [Icilin]
- activator of TRPM8 (TRPM8 [3]): potent activator

— US7465581B2, “ANKTM1, a cold-activated TRP-like channel expressed in nociceptive neurons” (The Scripps Research Institute, priority 2002, dated 2008)
